As usually defined, the GI50 is the concentration that inhibits growth by half. What is called IC50 is the point on the concentration scale where inhibition reaches its midpoint.

For one assay, the system named is HCT-116. The assay is described as follows: Cytotoxicity against human HCT-116 cells assessed as cell growth inhibition measured after 72 hrs by MTS assay. Type of assay: functional.
The target in assay [1] is T1, Kinesin-like protein KIF11 (Homo sapiens, UniProt P52732).
T1 sequence (P52732 whole entry): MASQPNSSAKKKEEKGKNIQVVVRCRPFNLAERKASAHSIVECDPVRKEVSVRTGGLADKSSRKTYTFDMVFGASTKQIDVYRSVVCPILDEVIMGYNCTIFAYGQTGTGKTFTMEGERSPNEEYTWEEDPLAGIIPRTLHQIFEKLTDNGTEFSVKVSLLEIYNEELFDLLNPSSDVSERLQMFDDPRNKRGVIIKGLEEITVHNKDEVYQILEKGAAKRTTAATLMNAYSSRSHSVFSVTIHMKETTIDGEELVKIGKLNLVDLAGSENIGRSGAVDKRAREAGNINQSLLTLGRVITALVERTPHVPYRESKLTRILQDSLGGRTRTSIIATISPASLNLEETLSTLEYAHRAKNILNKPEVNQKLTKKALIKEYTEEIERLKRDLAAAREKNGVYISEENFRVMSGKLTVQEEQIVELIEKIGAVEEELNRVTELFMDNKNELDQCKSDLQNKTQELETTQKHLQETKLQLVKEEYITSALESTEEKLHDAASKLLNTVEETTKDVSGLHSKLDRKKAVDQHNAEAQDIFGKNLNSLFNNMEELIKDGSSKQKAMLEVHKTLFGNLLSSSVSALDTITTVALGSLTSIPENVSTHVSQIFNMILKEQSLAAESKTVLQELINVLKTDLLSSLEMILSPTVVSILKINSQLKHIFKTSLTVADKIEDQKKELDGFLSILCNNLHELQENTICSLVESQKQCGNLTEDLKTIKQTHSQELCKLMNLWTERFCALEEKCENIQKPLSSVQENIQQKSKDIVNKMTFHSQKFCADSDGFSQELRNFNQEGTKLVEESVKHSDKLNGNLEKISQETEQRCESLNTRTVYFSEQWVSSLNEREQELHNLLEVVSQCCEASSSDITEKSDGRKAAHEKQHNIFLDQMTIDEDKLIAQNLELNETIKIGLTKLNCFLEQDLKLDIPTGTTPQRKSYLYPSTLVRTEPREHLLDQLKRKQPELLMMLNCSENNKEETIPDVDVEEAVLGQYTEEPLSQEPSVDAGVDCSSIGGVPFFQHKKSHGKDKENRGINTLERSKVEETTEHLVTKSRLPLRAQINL
The assay is described as follows: Inhibition C-terminal His-tagged KSP motor domain(1 to 369 residues) (unknown origin) expressed in bacteria assessed as inhibition of microtubule-stimulated ATPase activity preincubated for 30 mins followed by addition of ATP and measured after 15 mins by luciferase-derived luminiscence assay.

The next assay deals with A549. The assay is described as follows: Cytotoxicity against human A549 cells overexpressing GGT assessed as cell growth inhibition measured after 72 hrs by MTS assay. It counts as functional. On the technique in general: Tetrazolium assays rely on reduction of a dye to a coloured formazan, in cell work by metabolically active cells.
The next assay concerns NCI-H460. The assay is described as follows: Cytotoxicity against human NCI-H460 cells expressing low GGT assessed as cell growth inhibition measured after 72 hrs by MTS assay. Type of assay: functional.

For `CC(=O)N[C@@H](CSC1(c2ccc(C(F)(F)F)cc2)c2ccccc2CCc2ccccc21)C(=O)O`, the GI50 with HCT-116 was greater than 1000 nM.
Consider `NCCOCCOCCNC(=O)C(N)CSC1(c2ccc(C(F)(F)F)cc2)c2ccccc2CCc2ccccc21` (stereo not given), for which, in assay [1], the IC50 turned out to be 42 nM. The GI50 in the assay on HCT-116 was 63 nM.
Consider `N[C@@H](CSC1(c2ccc(C(F)(F)F)cc2)c2ccccc2CCc2ccccc21)C(=O)O`, for which the GI50 amounted to 33 nM in the assay on A549, 15 nM with NCI-H460 and 33 nM in the assay on HCT-116.
As to `CC(C)(C)OC(=O)N[C@@H](CSC1(c2ccc(C(F)(F)F)cc2)c2ccccc2CCc2ccccc21)C(=O)O`, the GI50 with HCT-116 was greater than 1000 nM.
As to `N[C@@H](CSC1(c2ccc(C(F)(F)F)cc2)c2ccccc2CCc2ccccc21)C(=O)NCCO`, in assay [1], the IC50 amounted to 80 nM. The GI50 in the assay on HCT-116 is 60 nM.
In the same order, the values of `N[C@@H](CSC1(c2ccc(C(F)(F)F)cc2)c2ccccc2CCc2ccccc21)C(=O)NCCN1CCCCC1` are 146 nM and 191 nM.
For `N[C@@H](CSC1(c2ccc(C(F)(F)F)cc2)c2ccccc2CCc2ccccc21)C(=O)NCc1ccccc1`, the IC50 in assay [1] turned out to be 358 nM. Moreover, in the assay with HCT-116, the GI50 stood at 282 nM.
Consider `CN(C)CCNC(=O)[C@@H](N)CSC1(c2ccc(C(F)(F)F)cc2)c2ccccc2CCc2ccccc21`, for which the IC50 in assay [1] was determined as 56 nM. The GI50 in the assay on HCT-116 turned out to be 115 nM.

Source of the values: ChEMBL document CHEMBL4732246, “Design, synthesis, and evaluation of a novel prodrug, a S-trityl--cysteine derivative targeting kinesin spindle protein” (Eur J Med Chem, 2021).
